Measurements taken from patent EP1157000B1 (Warner-Lambert Company LLC, priority 1999, dated 2001).

Key:
BCATm = target: T1, BCATm (Homo sapiens, UniProt O15382); details: cited from earlier work
T1 sequence (O15382 28-392): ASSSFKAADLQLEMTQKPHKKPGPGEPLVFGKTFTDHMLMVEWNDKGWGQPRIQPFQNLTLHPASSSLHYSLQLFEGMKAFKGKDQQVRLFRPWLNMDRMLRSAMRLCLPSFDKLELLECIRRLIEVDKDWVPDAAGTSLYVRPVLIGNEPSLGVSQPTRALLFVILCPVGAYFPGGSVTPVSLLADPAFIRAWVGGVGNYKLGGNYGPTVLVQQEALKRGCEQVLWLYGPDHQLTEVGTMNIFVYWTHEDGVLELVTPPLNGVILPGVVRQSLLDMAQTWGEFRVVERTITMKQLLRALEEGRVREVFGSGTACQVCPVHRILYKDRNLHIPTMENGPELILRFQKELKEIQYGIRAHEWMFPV

BCATc = target: T2, BCATc (Homo sapiens, UniProt P54687); details: cited from earlier work
T2 sequence (P54687 1-386): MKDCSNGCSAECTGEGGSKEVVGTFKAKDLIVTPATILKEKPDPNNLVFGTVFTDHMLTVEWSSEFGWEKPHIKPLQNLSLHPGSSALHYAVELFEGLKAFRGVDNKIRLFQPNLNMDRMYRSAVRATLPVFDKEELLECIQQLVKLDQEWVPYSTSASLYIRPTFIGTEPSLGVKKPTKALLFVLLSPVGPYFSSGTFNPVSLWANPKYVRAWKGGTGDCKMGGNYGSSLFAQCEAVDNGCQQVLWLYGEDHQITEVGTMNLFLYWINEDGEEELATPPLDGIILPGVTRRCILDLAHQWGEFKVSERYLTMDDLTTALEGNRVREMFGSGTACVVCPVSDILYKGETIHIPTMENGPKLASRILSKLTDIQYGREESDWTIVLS

ex vivo rat retinas = assay: CO2 fixation: H14CO3 incorporation into metabolites by ex vivo retinas; assay type: cell-based; details: for TCA cycle / Asp / Gln / Glu / Total / Lact: half retinas, 37°C, 25 mM H14CO3, 0.2 mM pyruvate, BCAA 0.2 mM each; for Lact: lactate peak includes pyruvate
Description: Sprague Dawley rats (200-400g) were used for all experiments. Rats were housed under a 12 hour light/dark cycle, and fed and watered ad libidum. After anaesthetizing the rats with-nembutal (IP), eyes were enucleated and retinas dissected in ice-cold buffer.
Freshly isolated half-retinas were preincubated at 37°C for 3 minutes in buffer A (pH 7.4) containing 118 mM NaCl, 4.7 mM KCl, 2.5 mM CaCl, 1.2 mM KH2PO4, 1.17 mM MgSO4, 20 mM HEPES, 5 mM glucose, 0.05 mM NH4Cl and 25 mM NaH^14CO3. Pyruvate (either 0.2 or 5mM) was also included in the buffer. 1 ml buffer as well as the gas phase within 20 ml vials were equilibrated with 95% O2, 5% CO2. Incubations were initiated by addition of 10 µCi/ml H^14CO3. The vessels were then immediately closed to the atmosphere. Most incubations continued for 20 minutes, although in some preliminary studies, times were varied from 10-60 minutes. Reactions were stopped by removing the half retinas from the buffer and placing them in 2% perchloric acid. The buffer was separately acidified with perchloric acid (final concentration 2%) and unreacted ^14CO2 was allowed to diffuse out of the acidified samples.
The total amount of product (non-volatile carbon 14 metabolites) was determined by measuring the radioactivity in aliquots of the medium and tissue samples. Metabolites in the extracts were separated by Dowex-1 acetate chromatography as previously described: Williamson, J.R., and Corkey, B. (1969) "Methods in Enzymology", Vol, 13, ed. Lowenstein, J.M. (Academic Press) pp 434-513, and quantified by scintillation counting. In most instances, individual metabolite carbon 14 data is reported as the sum of the radioactivity in the medium plus tissue extracts. Complete quantification of ^14C-metabolite amounts in both the retina and in the medium can be found below in Tables I and II.
The chromatographic procedure employed in this example separates glutamine, glutamate, aspartate, and lactic acid. The citric acid cycle intermediates remain on the Dowex columns and are estimated as the difference between the total counts in the sample and the counts that are eluted. Evidence of the validity of this procedure has been reported previously. Before subjecting samples to chromatography, ^14C-pyruvic acid in the samples was converted stoichiometrically to lactate by treating the samples with excess NADH and lactate dehydrogenase. Therefore the single lactate peak reported contains all carbon 14 in both lactate and pyruvate. To determine specific activity of glutamate and glutamine in the retinal samples, the mass amount of the glutamate was measured fluorometrically using a standard enzymatic procedure: Patel, M.S. (1989) in Neuromethods: Carbohydrate and Energy Metabolism, Vol II, eds. Boulton, A.A and Baker G.D. (The Humana Press, Inc.) pp 309-340. The mass amount of glutamine was measured after chromatographic separation from glutamate followed by a luminometric determination previously described. ATP and creatine phosphate were measured fluorometrically using an enzymatic assay.
Data are reported in text and figures by determining the dpm/mg in a particular metabolite and dividing by the specific activity of medium HCO3. Therefore all data are reported as nmoles of H^14CO3/mg protein for any given metabolite.

[1] = system: freshly dissected rat retinas; assay: Synthesis of leucine in freshly dissected retinas; assay type: cell-based; details: data not shown
[2] = 0, 0.2, 1, or 5 mM GBP, 20 minutes, Figure 5
[3] = compartment in (retina), 20 min, GBP 1 mM
[4] = compartment out (medium), 20 min, GBP 1 mM
[5] = sum of medium plus tissue, 20 min, GBP 1 mM

In the case of NCC1(CC(=O)O)CCCCC1 [GBP, gabapentin], the “inhibition of BCATm” value (BCATm) is given as “not”, the “inhibition of BCATc” value (BCATc) is given as “inhibits” and the “extent of inhibition of the synthesis of ^14C-glutamate plus ^14C-glutamine on increasing the concentration over 1 mM” value (ex vivo rat retinas; [2]) is given as “did not significantly increase”. The “formation of citric acid cycle intermediates, lactate and pyruvate” value (ex vivo rat retinas; [2]) was “no influence”, the “formation of ^14C-glutamate plus ^14C-glutamine” value (ex vivo rat retinas; 1 mM GBP plus 200 µM each of leucine, isoleucine and valine) was 89 % of control and the “formation of ^14C-glutamate plus ^14C-glutamine” value (ex vivo rat retinas; 1 mM GBP plus 200 µM each of leucine, isoleucine and valine, p<0.01 versus GBP alone) was 2.84 ± 1.15 nmol/mg. For the same compound, the “formation of ^14C-glutamate plus ^14C-glutamine” value (ex vivo rat retinas; 1 mM GBP, 20 min, 0.2 mM pyruvate, p<0.001) was 71 % of control, the “formation of ^14C-glutamate plus ^14C-glutamine” value (ex vivo rat retinas; 1 mM GBP, 20 min, 0.2 mM pyruvate, control 3.18 ± 0.12) was 2.26 ± 0.05 nmol/mg and the “incorporation of carbon 14 into lactate and citric acid cycle intermediates” value (ex vivo rat retinas; 1 mM GBP, control 1.93 ± .06, increase not significant) was 2.12 ± 0.13 nmoles of H^14CO3/mg protein. The “H^14CO3 incorporation into lactate and citric acid cycle intermediates” value (ex vivo rat retinas; GBP 1 mM) was “without slowing”, the “Inhibition of de novo glutamate synthesis after addition of BCAA” value (ex vivo rat retinas; GBP 1 mM plus 0.6 mM BCAA) was “reversed” and the inhibition at 1000 µM (ex vivo rat retinas; Rattus norvegicus, GBP 1 mM, read-out: inhibited synthesis of ^14C-glutamate plus ^14C-glutamine from H^14CO3) was 31%. The TCA cycle (ex vivo rat retinas; compartment in (retina), estimated as total counts minus eluted counts, 20 min, GBP 1 mM) was 1.514 ± 0.103 nmoles of H^14CO3/mg protein, the Asp (ex vivo rat retinas; [3]) was 0.549 ± 0.019 nmoles of H^14CO3/mg protein and the Gln (ex vivo rat retinas; [3]) was 0.389 ± 0.026 nmoles of H^14CO3/mg protein. The Glu (ex vivo rat retinas; [3]) was 1.324 ± 0.025 nmoles of H^14CO3/mg protein, the Total (ex vivo rat retinas; [3]) was 3.902 ± 0.122 nmoles of H^14CO3/mg protein and the Lact (ex vivo rat retinas; [3]) was 0.089 ± 0.006 nmoles of H^14CO3/mg protein. The Asp (ex vivo rat retinas; [4]) was 0.035 ± 0.003 nmoles of H^14CO3/mg protein, the Gln (ex vivo rat retinas; [4]) was 0.545 ± 0.024 nmoles of H^14CO3/mg protein and the Glu (ex vivo rat retinas; [4]) was 0.008 ± 0.002 nmoles of H^14CO3/mg protein. For the same compound, the TCA cycle (ex vivo rat retinas; [4]) was 0 nmoles of H^14CO3/mg protein, the Total (ex vivo rat retinas; [4]) was 1.066 ± 0.028 nmoles of H^14CO3/mg protein and the Lact (ex vivo rat retinas; [4]) was 0.516 ± 0.030 nmoles of H^14CO3/mg protein. The Asp (ex vivo rat retinas; [5]) was 0.584 ± 0.022 nmoles of H^14CO3/mg protein, the Gln (ex vivo rat retinas; [5]) was 0.934 ± 0.036 nmoles of H^14CO3/mg protein and the Glu (ex vivo rat retinas; [5]) was 1.332 ± 0.025 nmoles of H^14CO3/mg protein. The TCA cycle (ex vivo rat retinas; [5]) was 1.514 ± 0.103 nmoles of H^14CO3/mg protein, the Total (ex vivo rat retinas; [5]) was 4.968 ± 0.028 nmoles of H^14CO3/mg protein and the Lact (ex vivo rat retinas; [5]) was 0.605 ± 0.028 nmoles of H^14CO3/mg protein. For the same compound, the synthesis of leucine [1] was “inhibits”.
